Test results from the supplement of paper PMC11451515.

Assays:
Conditions in all cases: 48 h
[1] = tested on: P12-Ichikawa; assay: AUC of viability dose-response curve (% viability x log10 dose units); higher = less sensitive
Outline: (§1)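 Over 48 h at 37°C, leukemia cells in 1536-well plates (500 or 1000 cells/well), adapted to each medium, received library compounds in DMSO at 11 threefold doses from 47 μM to 0.79 nM. CellTiter-Glo One luminescence, normalised per plate to DMSO and cell-free wells, was fitted by a four-parameter log-logistic function of log10 dose. The area under the curve was then integrated by trapezoidal rule, after scaling curves above full viability and removing those that failed quality control.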

[2] = tested on: NOMO1; assay: as above
Outline: as §1

[3] = tested on: P12-Ichikawa; assay: cell viability relative to DMSO control; higher = less cytotoxic
Outline: (§2)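 Viability values are per-plate percentages of DMSO wells, with background from cell-free wells. Library compounds in DMSO were pin-dosed, in an 11-point threefold series from 47 μM to 0.79 nM, onto NOMO1 or SEM (500 cells/well) or P12-Ichikawa (1000 cells/well) leukemia cells in 1536-well plates (5 μl). Those cells had been adapted for at least four passages in each medium, and CellTiter-Glo One luminescence was read after 48 h at 37°C.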

[4] = tested on: SEM cells; assay: as above
Outline: as §2

[5] = tested on: NOMO1; assay: as above
Outline: as §2

[6] = tested on: SEM cells; assay: AUC of viability dose-response curve (% viability x log10 dose units); higher = less sensitive
Outline: as §1

CCC[C@H](NC(=O)/C(C#N)=C/c1cccc(Br)n1)c1ccccc1
AUC of viability dose-response curve
Conditions | HPLM + 10% dialyzed FBS | RPMI 5 mM glucose + 10% FBS | RPMI 5 mM glucose + 10% dialyzed FBS
[1] | 449 | 447 | 444
[2] | 437 | 454 | 448

cell viability [%]
Conditions | [3] | [4] | [5]
HPLM + 10% dialyzed FBS, 0.000781 µM | 122 | 121 | –
HPLM + 10% dialyzed FBS, 0.00234 µM | 121 | 125 | –
HPLM + 10% dialyzed FBS, 0.00702 µM | 121 | 119 | –
HPLM + 10% dialyzed FBS, 0.0211 µM | 102 | 26.5 | –
HPLM + 10% dialyzed FBS, 0.0632 µM | 124 | 124 | –
HPLM + 10% dialyzed FBS, 0.19 µM | 121 | 117 | –
HPLM + 10% dialyzed FBS, 0.569 µM | 113 | 111 | –
HPLM + 10% dialyzed FBS, 1.71 µM | 113 | 124 | –
HPLM + 10% dialyzed FBS, 5.12 µM | 112 | 120 | –
HPLM + 10% dialyzed FBS, 15.4 µM | 103 | 98.6 | –
HPLM + 10% dialyzed FBS, 46.1 µM | 6.91 | 6.55 | –
RPMI 5 mM glucose + 10% FBS, 0.000781 µM | 130 | 94.4 | 110
RPMI 5 mM glucose + 10% FBS, 0.00234 µM | 122 | 110 | 123
RPMI 5 mM glucose + 10% FBS, 0.00702 µM | 122 | 104 | 116
RPMI 5 mM glucose + 10% FBS, 0.0211 µM | 111 | 17.6 | 111
RPMI 5 mM glucose + 10% FBS, 0.0632 µM | 120 | 112 | 111
RPMI 5 mM glucose + 10% FBS, 0.19 µM | 116 | 111 | 107
RPMI 5 mM glucose + 10% FBS, 0.569 µM | 128 | 102 | 103
RPMI 5 mM glucose + 10% FBS, 1.71 µM | 122 | 113 | 108
RPMI 5 mM glucose + 10% FBS, 5.12 µM | 111 | 111 | 104
RPMI 5 mM glucose + 10% FBS, 15.4 µM | 103 | 57.1 | 111
RPMI 5 mM glucose + 10% FBS, 46.1 µM | 5.26 | 7.49 | 4.55
RPMI 5 mM glucose + 10% dialyzed FBS, 0.000781 µM | 116 | – | 109
RPMI 5 mM glucose + 10% dialyzed FBS, 0.00234 µM | 131 | – | 114
RPMI 5 mM glucose + 10% dialyzed FBS, 0.00702 µM | 125 | – | 122
RPMI 5 mM glucose + 10% dialyzed FBS, 0.0211 µM | 114 | – | 115
RPMI 5 mM glucose + 10% dialyzed FBS, 0.0632 µM | 114 | – | 109
RPMI 5 mM glucose + 10% dialyzed FBS, 0.19 µM | 121 | – | 117
RPMI 5 mM glucose + 10% dialyzed FBS, 0.569 µM | 121 | – | 120
RPMI 5 mM glucose + 10% dialyzed FBS, 1.71 µM | 121 | – | 116
RPMI 5 mM glucose + 10% dialyzed FBS, 5.12 µM | 107 | – | 108
RPMI 5 mM glucose + 10% dialyzed FBS, 15.4 µM | 94.4 | – | 99.9
RPMI 5 mM glucose + 10% dialyzed FBS, 46.1 µM | 5.69 | – | 4.54

CCCc1nc(C(C)(C)O)c(C(=O)O)n1Cc1ccc(-c2ccccc2-c2nn[nH]n2)cc1
AUC of viability dose-response curve
Conditions | HPLM + 10% dialyzed FBS | RPMI 5 mM glucose + 10% FBS | RPMI 5 mM glucose + 10% dialyzed FBS
[1] | 448 | 452 | 413
[2] | 439 | 454 | 461

cell viability [%]
Conditions | [3] | [4] | [5]
HPLM + 10% dialyzed FBS, 0.000781 µM | 111 | 104 | 97.7
HPLM + 10% dialyzed FBS, 0.00234 µM | 115 | 116 | 111
HPLM + 10% dialyzed FBS, 0.00702 µM | 112 | 97.3 | 107
HPLM + 10% dialyzed FBS, 0.0211 µM | 117 | 112 | 114
HPLM + 10% dialyzed FBS, 0.0632 µM | 115 | 119 | 119
HPLM + 10% dialyzed FBS, 0.19 µM | 125 | 116 | 120
HPLM + 10% dialyzed FBS, 0.569 µM | 120 | 58.6 | 149
HPLM + 10% dialyzed FBS, 1.71 µM | 119 | 60 | 115
HPLM + 10% dialyzed FBS, 5.12 µM | 122 | 118 | 113
HPLM + 10% dialyzed FBS, 15.4 µM | 125 | 120 | 119
HPLM + 10% dialyzed FBS, 46.1 µM | 128 | 110 | 126
RPMI 5 mM glucose + 10% FBS, 0.000781 µM | 109 | 76.4 | 107
RPMI 5 mM glucose + 10% FBS, 0.00234 µM | 114 | 88.1 | 103
RPMI 5 mM glucose + 10% FBS, 0.00702 µM | 102 | 69.3 | 105
RPMI 5 mM glucose + 10% FBS, 0.0211 µM | 110 | 76.7 | 110
RPMI 5 mM glucose + 10% FBS, 0.0632 µM | 116 | 84.5 | 105
RPMI 5 mM glucose + 10% FBS, 0.19 µM | 130 | 76.5 | 125
RPMI 5 mM glucose + 10% FBS, 0.569 µM | 124 | 69 | 123
RPMI 5 mM glucose + 10% FBS, 1.71 µM | 123 | 46.8 | 113
RPMI 5 mM glucose + 10% FBS, 5.12 µM | 126 | 79.2 | 112
RPMI 5 mM glucose + 10% FBS, 15.4 µM | 138 | 82.6 | 114
RPMI 5 mM glucose + 10% FBS, 46.1 µM | 109 | 62.3 | 124
RPMI 5 mM glucose + 10% dialyzed FBS, 0.000781 µM | 103 | 96 | 106
RPMI 5 mM glucose + 10% dialyzed FBS, 0.00234 µM | 70.5 | 104 | 104
RPMI 5 mM glucose + 10% dialyzed FBS, 0.00702 µM | 107 | 109 | 115
RPMI 5 mM glucose + 10% dialyzed FBS, 0.0211 µM | 107 | 98.5 | 116
RPMI 5 mM glucose + 10% dialyzed FBS, 0.0632 µM | 117 | 104 | 114
RPMI 5 mM glucose + 10% dialyzed FBS, 0.19 µM | 118 | 109 | 117
RPMI 5 mM glucose + 10% dialyzed FBS, 0.569 µM | 116 | 90.3 | 124
RPMI 5 mM glucose + 10% dialyzed FBS, 1.71 µM | 117 | 56 | 113
RPMI 5 mM glucose + 10% dialyzed FBS, 5.12 µM | 118 | 103 | 128
RPMI 5 mM glucose + 10% dialyzed FBS, 15.4 µM | 128 | 105 | 126
RPMI 5 mM glucose + 10% dialyzed FBS, 46.1 µM | 135 | 103 | 112

Fc1ccc(Cl)cc1-c1nc(Nc2ccncc2)c2nccnc2n1
AUC of viability dose-response curve
Conditions | [1] | [2] | [6]
HPLM + 10% dialyzed FBS | 463 | 461 | 453
RPMI 5 mM glucose + 10% FBS | 457 | 438 | 464
RPMI 5 mM glucose + 10% dialyzed FBS | 451 | 442 | 467

Cn1cc(CNCC2CCN(c3ncc(C(=O)NO)cn3)CC2)c2ccccc21
AUC of viability dose-response curve
Conditions | [1] | [2] | [6]
HPLM + 10% dialyzed FBS | 262 | 268 | 231
RPMI 5 mM glucose + 10% FBS | 255 | 276 | 238
RPMI 5 mM glucose + 10% dialyzed FBS | 273 | 271 | 239

NC1(c2ccc(-c3nc4ccn5c(=O)[nH]nc5c4cc3-c3ccccc3)cc2)CCC1
AUC of viability dose-response curve
Conditions | [1] | [2] | [6]
HPLM + 10% dialyzed FBS | 396 | 392 | 322
RPMI 5 mM glucose + 10% FBS | 366 | 451 | 318
RPMI 5 mM glucose + 10% dialyzed FBS | 361 | 423 | 298

[4], HPLM + 10% dialyzed FBS
Conditions | cell viability [%]
0.000781 µM | 123
0.00234 µM | 138
0.00702 µM | 125
0.0211 µM | 74.7
0.0632 µM | 125
0.19 µM | 104
0.569 µM | 78.3
1.71 µM | 65.1
5.12 µM | 43.8
15.4 µM | 37.9
46.1 µM | 14.4
